Experimental data published in patent publication US7915227B2, “Pharmaceutical formulations employing short-chain sphingolipids and their use” (Het Nederlands Kanker Instituut, priority 2003, dated 2011).

Experiments:
[1] = system: BAEC; experiment: Doxorubicin uptake by cultured BAEC; assay type: cell-based; conditions: lipid 10 μM, doxorubicin 50 μM simultaneously, 60 minutes, uptake in the absence of lipid = 100%
Method: A range of glycosphingolipids and sphingomyelins having different structures were also studied. The data are summarised in the following tables, and are expressed as a percentage (+/−SD) of doxorubicin uptake by cultured BAEC, as compared to drug uptake in the absence of lipid. Glycosphingolipids and sphingomyelins were used at 10 μM. Doxorubicin was administered simultaneously at 50 μM. After 60 minutes, cells were washed and cellular doxorubicin contents were determined fluorimetrically. Background fluorescence was subtracted from all values and all data were corrected for protein contents. Each data point is the average value of at least three independent experiments, but some lipids were assayed in 10 or more independent experiments. For each experiment 4, 6 or 8 wells with cells were treated identically and the data were then averaged (=1 experiment).

[2] = system: A431 cells; experiment: Cellular doxorubicin uptake; assay type: cell-based, human; conditions: 15 μM co-administered lipid, within an hour, control conditions = 100%
Method: A431 (adherent human epidermoid carcinoma cells) were cultured in Dulbecco's modified Eagle medium (DMEM), supplemented with 10% (v/v) fetal calf serum, 100 units/ml penicillin, 100 μg/ml streptomycin and 4 mM L-glutamine. Cells were sub-cultured once a week by trypsinization and maintained in a water-saturated atmosphere of 5% CO2 at 37° C. All studies were performed at a confluency of 80-90%.
For cellular doxorubicin accumulation measurements, A431 cells were cultured in flat-bottom 96-well plates. At confluency, cells were changed to serum-free medium and exposed to 50 μM free or to 20 μM liposomal doxorubicin. After extensive washing, cells were lysed in 100 μl of 1% (w/v) Triton X-100. Native fluorescence intensities were then measured by a Perkin Elmer Victor Wallac II fluorescence microplate reader, using 485 nm and 535 nm filters for excitation and emission, respectively. All values were corrected for background fluorescence. Cellular doxorubicin contents were calculated with the aid of standard amounts, and corrected for differences in protein content, as determined with the BCA assay (see, e.g., Smith et al., 1985).

[3] = system: A431 cells; experiment: Membrane leakage assay (LDH release); assay type: cell-based, human; conditions: for LDH release: 100 μM lipid
Method: To investigate (loss of) plasma membrane integrity, the release of the cytosolic enzyme LDH into phenol red-free cell culture medium was monitored. Flat-bottom 96-well plates containing (liposome-treated) A431 cells were centrifuged (2000 rpm, 5 minutes at 20° C.) and 50 μl aliquots of the supernatants were assessed for LDH activity with the CytoTox 96 kit, according the manufacturer's instructions. Values obtained from cells that were lysed in 0.8% Triton X-100 served as positive control. All data were corrected for protein contents, as determined with the BCA assay (see, e.g., Smith et al., 1985).

[4] = system: A431 cells; experiment: Cell viability (MTT assay); assay type: cell-based, human; conditions: for viability after 24 hour exposure: 24 hour exposure to 20 μM lipid
Method: For viability assessment, A431 cells were cultured in flat-bottom 96-well plates. After experimental treatments, 100 μg of the mitochondrial dehydrogenase substrate MTT was added to each well (see, e.g., Carmichael et al., 1987). Cells were then incubated for 60 minutes at 37° C. After centrifugation (3000 rpm, 10 minutes at 4° C.) supernatants were removed. The precipitated blue formazan products were then dissolved in 100 μl DMSO, and absorbencies were read in a Bio-Tek Instruments EL 340 photospectrometric microplate reader at 540 nm. Background absorbencies were subtracted and values from wells containing untreated control cells were set at 100% viability.

Compound | doxorubicin uptake, mean % ± SD (glycosphingolipids) [1] [%] | doxorubicin uptake, mean % ± SD (sphingomyelins) [1] [%] | further results
CCCCCCCCCCCCC/C=C/[C@@H](O)C(N)CO[C@H]1O[C@H](CO)[C@@H](O[C@@H]2O[C@H](CO)[C@H](O)[C@H](O)[C@H]2O)[C@H](O)[C@@H]1O (stereo partly drawn) [C0-LacCer] | 93.8 ± 4.0 |  | 
CCCCCCCCCCCCC/C=C/[C@@H](O)[C@@H](N)CO[C@@H]1O[C@H](CO)[C@H](O)[C@H](O)[C@H]1O [C0-GalCer] | 98.2 ± 9.3 |  | 
CCCCCCCCCCCCCC=CC(O)C(COC1OC(CO)C(O)C(O)C1O)NC(=O)CCCCCCCCCCC (stereo not drawn) [C12-GlcCer] | 85.6 ± 12.0 |  | 
CCCCCCCCCCCCC/C=C/[C@@H](O)[C@H](COP(=O)([O-])OCC[N+](C)(C)C)NC(=O)CCCCC [C6-SM, N-hexanoyl-sphingomyelin] |  | 330.6 ± 92.3 | uptake of free doxorubicin [2]: 461.8±126.9%; LDH release [3]: 53.9±7.9%; LDH release (of total LDH activity) ([3]; 1 hour incubation with 10 μM lipid, 0.8% Triton X-100 = 100%): 0.5±0.5%; viability after 24 hour exposure [4]: 29.3±5.5%; viable cells ([4]; determined 24 hours after a 1 hour incubation with 10 μM lipid): 95.6±19.1%
CCCCCCCCCCCCCC=CC(O)C(COC1OC(CO)C(OC2OC(CO)C(O)C(O)C2O)C(O)C1O)NC(=O)CCCCCCC (stereo not drawn) [C8-LacCer] | 301.5 ± 41.2 |  | 
CCCCCCCCCCCCC/C=C/[C@@H](O)[C@H](COC1OC(CO)C(O)C(O)C1O)NC(=O)CCCCCCC (stereo partly drawn) [C8-GlcCer, N-octanoyl-glucosylceramide] | 335.8 ± 88.5 |  | uptake of free doxorubicin [2]: 271.7±58.5%; LDH release [3]: 0.0±0.6%; viability after 24 hour exposure [4]: 71.3±5.3%
CCCCCCCCCCCCC/C=C/[C@@H](O)[C@H](CO)NC(=O)CCCCC [C6-Cer] |  | 96.6 ± 17.3 | 
CCCCCCCCCCCCC/C=C/[C@@H](O)[C@@H](N)COP(=O)([O-])OCC[N+](C)(C)C [C0-SM (SPC)] |  | 128.3 ± 19.5 | 
CCCCCCCCCCCCC/C=C/[C@@H](O)[C@@H](N)CO [sphingosine, (2S,3R,4E)-2-amino-4-octadecene-1,3-diol] |  | 100.4 ± 20.3 | 
CCCCCCCCCCCCC/C=C/[C@@H](O)[C@@H](N)CO[C@@H]1O[C@H](CO)[C@@H](O)[C@H](O)[C@H]1O [C0-GlcCer] | 86.7 ± 16.2 |  | 
CCCCCCCCCCCCC/C=C/[C@@H](O)[C@H](COP(=O)(O)O)NC(=O)CCCCCCC [C8-Cer-1-P] |  | 122.2 ± 7.2 | 
CCCCCCCCCCCCC/C=C/[C@@H](OC)[C@H](COP(=O)([O-])OCC[N+](C)(C)C)NC(=O)CCCCCCC [3-O-methyl-C8-SM] |  | 249.8 ± 36.5 | 
CCCCCCCCCCCCCC=CC(O)C(COC1OC(CO)C(O)C(O)C1O)NC(=O)CCCCCCC (stereo not drawn) [C8-GalCer] | 213.7 ± 31.1 |  | 
